Test systems include UACC-257; NCI-H226; OVCAR-5; SF-539; K562; Malme-3M; SN12C; NCI-H522; SNB-19; UACC-62; HCT-116; U-251; SK-MEL-2; UO-31; SW-620; SF-295; NCI-H460; HL-60.
What all share (assay): NCI tumour cell line growth inhibition, 48 h

Structures are written as SMILES.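 Following 48 hours of exposure in 96-well plates, responses at five concentrations were used to interpolate endpoints linearly. Here, GI50 denotes the concentration required for 50% inhibition of growth.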 Active and inactive are the calls of the source. Cut-off read from the data, not from the text of the source: active = GI50 up to about 1.1 µM and inactive = higher. Where only a bound is given, the exact number is not on record here.

This note sets out measurements from ChEMBL document CHEMBL1201862, “PubChem BioAssay data set” (2004).

`CC1(C)CCC(=O)c2c(O)ccc(O)c21`: the GI50 with UACC-257 is 25.1 µM (inactive); in the test with NCI-H226, > 100 µM (inactive); with OVCAR-5 it was > 100 µM (inactive); with SF-539, 77.4 µM (inactive); in the test with K562, 26.1 µM (inactive); in the test on Malme-3M, > 100 µM (inactive). Besides, the GI50 with SN12C was > 100 µM (inactive); in the test on NCI-H522, 55.8 µM (inactive); with SNB-19 it was > 100 µM (inactive); in the test with UACC-62 it was 66.8 µM (inactive); in the test on HCT-116, 51.9 µM (inactive); in the test on U-251, > 100 µM (inactive). Besides, the GI50 in the test with SK-MEL-2 was 86.5 µM (inactive); with UO-31, > 100 µM (inactive); with SW-620, 48.4 µM (inactive); in the test on SF-295, > 100 µM (inactive).

As to `O=S(=O)(N/N=C\c1c2ccccc2[n+]([O-])c2ccccc12)c1ccc(Cl)cc1`, the GI50 is > 100 µM (inactive) in the test on UACC-257; 30.3 µM (inactive) in the test on NCI-H226; > 100 µM (inactive) in the test on OVCAR-5; 48.2 µM (inactive) with K562; 53.1 µM (inactive) in the test with Malme-3M; > 100 µM (inactive) in the test with SN12C. The GI50 in the test with NCI-H522 is 93.8 µM (inactive); in the test with SNB-19 it was 53.3 µM (inactive); in the test with UACC-62 it was > 100 µM (inactive); with NCI-H460 it was > 100 µM (inactive); with HCT-116, 45.5 µM (inactive); in the test on U-251, 94.4 µM (inactive). Further, the GI50 in the test on SK-MEL-2 was 46.1 µM (inactive); in the test with UO-31, > 100 µM (inactive); with SW-620 it was > 100 µM (inactive); in the test on HL-60, > 100 µM (inactive); with SF-295 it was 66.4 µM (inactive).

In the case of `CSc1ccc2c(cc1=O)[C@@H](NC(=O)c1cc(O)c(O)c(O)c1)CCc1cc(O)c(O)c(O)c1-2`, the GI50 with UACC-257 is 18 µM (inactive); in the test on NCI-H226 it was 16 µM (inactive); in the test with OVCAR-5 it was 15 µM (inactive); in the test on SF-539 it was 24.7 µM (inactive); with K562, 3.8 µM (inactive); with Malme-3M it was 30 µM (inactive). Besides, the GI50 in the test on SN12C was 18.1 µM (inactive); in the test with NCI-H522, 21.4 µM (inactive); in the test with SNB-19, 81.3 µM (inactive); with UACC-62 it was 19.2 µM (inactive); with NCI-H460 it was 20 µM (inactive); in the test with HCT-116 it was 16 µM (inactive). Besides, the GI50 in the test on U-251 was 18.6 µM (inactive); in the test on UO-31, 25.9 µM (inactive); in the test with SW-620, 17.1 µM (inactive); with HL-60, 16.8 µM (inactive); with SF-295 it was 23.7 µM (inactive).

For `Cc1cc(C)c2c(c1C)CN1CN2Cc2c(C)c(C)cc(C)c21`, the GI50 was > 100 µM (inactive) in the test with NCI-H226; > 100 µM (inactive) with OVCAR-5; > 100 µM (inactive) in the test on SF-539; 8.75 µM (inactive) with K562; > 100 µM (inactive) with Malme-3M; > 100 µM (inactive) in the test on SN12C. Besides, the GI50 is > 100 µM (inactive) in the test on NCI-H522; < 0.01 µM (active) in the test on SNB-19; > 100 µM (inactive) in the test with UACC-62; 48.4 µM (inactive) in the test with NCI-H460; > 100 µM (inactive) with HCT-116; 5.18 µM (inactive) in the test on U-251. For the same molecule, the GI50 was > 100 µM (inactive) in the test on UO-31, > 100 µM (inactive) in the test with SW-620, 11.4 µM (inactive) with HL-60 and > 100 µM (inactive) in the test with SF-295.

Take `Cc1ccc2nc3c(C(=O)NCCN(C)C)cccc3nc2c1`: the GI50 in the test with UACC-257 is 3.8 µM (inactive); in the test on NCI-H226 it was 2.59 µM (inactive); with OVCAR-5, 6.34 µM (inactive); in the test on SF-539, 4.2 µM (inactive); in the test on K562 it was 2.47 µM (inactive); in the test on Malme-3M, 2.47 µM (inactive). Further, the GI50 in the test on SN12C was 3.42 µM (inactive); in the test on NCI-H522, 8.81 µM (inactive); with SNB-19, 5.96 µM (inactive); in the test on UACC-62 it was 4.35 µM (inactive); in the test on HCT-116 it was 1.59 µM (inactive); in the test with U-251, 5.55 µM (inactive). In addition, the GI50 is 2.76 µM (inactive) in the test with SK-MEL-2, 1.92 µM (inactive) in the test on SW-620, 5.45 µM (inactive) with HL-60 and 5.22 µM (inactive) with SF-295.

On to `Cc1cc(=O)oc2c1cc(OCC(=O)OCCN1CCCCC1)c1occ(C)c12`, for which the GI50 in the test on UACC-257, in the test with NCI-H226, in the test on OVCAR-5, in the test on SF-539, in the test on K562 and with Malme-3M was > 100 µM (inactive) throughout. For the same molecule, the GI50 with SN12C, with SNB-19, with UACC-62, in the test with NCI-H460, in the test with HCT-116 and with U-251 was > 100 µM (inactive) throughout. In addition, the GI50 in the test on SK-MEL-2, in the test with UO-31, with SW-620, in the test on HL-60 and in the test on SF-295 was > 100 µM (inactive) each time.

For the molecule `c1ccc([S+](c2ccccc2)c2ccc(Sc3ccc([S+](c4ccccc4)c4ccccc4)cc3)cc2)cc1`, the GI50 was 12.5 µM (inactive) in the test on UACC-257; 25.5 µM (inactive) in the test with NCI-H226; 12.3 µM (inactive) with OVCAR-5; 31.3 µM (inactive) with SF-539; 1.17 µM (inactive) in the test on K562; 32.6 µM (inactive) with Malme-3M. In addition, the GI50 in the test on SN12C is 17.9 µM (inactive); in the test with NCI-H522, 12 µM (inactive); with SNB-19, 7.64 µM (inactive); in the test on UACC-62, 24 µM (inactive); with NCI-H460 it was 29.6 µM (inactive); in the test on HCT-116, 21.8 µM (inactive). Moreover, the GI50 was 15.7 µM (inactive) in the test on U-251; 60 µM (inactive) in the test with UO-31; 37.9 µM (inactive) in the test with SW-620; 2.58 µM (inactive) in the test with HL-60; 25.8 µM (inactive) in the test with SF-295.

For the molecule `S=c1c2ccccc2c(=S)n2n1CC=CC2`, the GI50 in the test on UACC-257, in the test on NCI-H226, in the test with OVCAR-5, with SF-539, with K562 and with Malme-3M was > 100 µM (inactive) each time. In addition, the GI50 in the test with SN12C was > 100 µM (inactive); in the test on NCI-H522, 75.7 µM (inactive); in the test on SNB-19, > 100 µM (inactive); in the test on UACC-62, > 100 µM (inactive); with HCT-116 it was > 100 µM (inactive); in the test on U-251, > 100 µM (inactive). Moreover, the GI50 in the test with SK-MEL-2, with UO-31, with SW-620, in the test on HL-60 and with SF-295 was > 100 µM (inactive) throughout.

With `CC(NS(=O)(=O)c1ccc(Cl)cc1)C(=O)O` (configuration not stated), the GI50 in the test with UACC-257, in the test on OVCAR-5, with SF-539, with K562, in the test with Malme-3M and in the test on SN12C was > 100 µM (inactive) each time. Further, the GI50 with NCI-H522, with SNB-19, with UACC-62, with NCI-H460, in the test with U-251 and in the test with SK-MEL-2 was > 100 µM (inactive) in each case. Besides, the GI50 in the test with UO-31, in the test with SW-620, in the test with HL-60 and in the test on SF-295 was > 100 µM (inactive) in each case.

As for `N#CC1CCCCC1NC1(C#N)CCCCC1` (configuration not stated), the GI50 with UACC-257, in the test with NCI-H226, in the test with SF-539, in the test on K562, in the test on Malme-3M and in the test on SN12C was > 100 µM (inactive) each time. In addition, the GI50 with NCI-H522, in the test with SNB-19, with UACC-62, with U-251, in the test on SK-MEL-2 and in the test on UO-31 was > 100 µM (inactive) each time. The GI50 in the test with SW-620, in the test with HL-60 and in the test with SF-295 was > 100 µM (inactive) each time.

As for `CC(=O)NC(CCCNC(=O)OCc1ccccc1)C(=O)NCc1ccccc1` (configuration not stated), the GI50 in the test with UACC-257, in the test with NCI-H226, with OVCAR-5, with SF-539, in the test with K562 and with Malme-3M was > 100 µM (inactive) throughout. Moreover, the GI50 with SN12C, in the test with NCI-H522, in the test on SNB-19, with UACC-62, in the test with NCI-H460 and with HCT-116 was > 100 µM (inactive) throughout. The GI50 in the test on U-251, with SK-MEL-2, in the test on UO-31, in the test on SW-620 and in the test on SF-295 was > 100 µM (inactive) throughout.

On to `CCCCCCc1cc2c(C)c(C)c(=O)oc2cc1OCCCOc1cc2oc(=O)c(C)c(C)c2cc1CCCCCC`, for which the GI50 in the test on UACC-257, in the test on OVCAR-5, with SF-539, in the test with K562, with Malme-3M and with NCI-H522 was > 100 µM (inactive) in each case. For the same molecule, the GI50 in the test with SNB-19, in the test on UACC-62, in the test with NCI-H460, in the test with HCT-116, in the test with U-251 and in the test on SK-MEL-2 was > 100 µM (inactive) in each case. The GI50 with UO-31, in the test on SW-620, in the test on HL-60 and with SF-295 was > 100 µM (inactive) throughout.
